This assay relates to individuals with essential tremor. Nature of the assay: Phase 2 study, Compound 1 60 mg once daily for 28 days: TETRAS performance subscale part 4/6/7/8 total score. The format is in vivo, human. Conditions: Full Analysis Set. How it is done: 4) Upper limb tremor: Tremor is assessed during three maneuvers: forward horizontal reach posture, lateral “wing beating” posture and finger-nose-finger testing. Each upper limb is assessed and scored individually. The forward horizontal reach posture is held for 5 seconds. The lateral wing beating posture is held for 20 seconds. The finger-nose-finger movement is executed three times. Amplitude assessment should be estimated using the maximally displaced point of the hand at the point of greatest displacement along any single plane. For example, the amplitude of a pure supination-pronation tremor, pivoting around the wrist would be assessed at either the thumb or fifth digit.
The lines of the spiral should be approximately 1.3 cm (0.5 inch) apart. Then ask the subject to copy the spiral. Test and score each hand separately. Use a ballpoint pen. The pen should be held such that no part of the limb touches the table. Secure the paper on the table in a location that is suitable for the patient's style of drawing. Score the tremor in the spiral, not the movement of the limb. Each limb is assessed and scored individually. 0=normal. 1=slight: tremor barely visible. 2=mild: obvious tremor. 3=moderate: portions of figure not recognizable. 4=severe: figure not recognizable.
7) Handwriting: Have patient write the standard sentence “This is a sample of my best handwriting” using the dominant hand only. Patients must write cursively (i.e., no printing). They cannot hold or stabilize their hand with the other hand. Use a ballpoint pen. Secure the paper on the table in a location that is suitable for the patient's style of writing. Score the tremor in the writing, not the movement of the limb. 0=normal. 1=slight: untidy due to tremor that is barely visible. 2=mild: legible, but with considerable tremor. 3=moderate: some words illegible. 4=severe: completely illegible.
8) Dot approximation task: The examiner makes a dot or X and instructs the subject to hold the tip of the pen “as close as possible to the dot (or center of an X) without touching it, (ideally approximately 1 mm) for 10 seconds.” Each hand is scored separately. 0=no tremor. 1=tremor is barely visible. 1.5=tremor is visible, but less than 1 cm. 2=tremor is 1-<3 cm amplitude. 2.5=tremor is 3-<5 cm amplitude. 3=tremor is 5-<10 cm amplitude. 3.5=tremor is 10-<20 cm amplitude. 4=tremor is >20 cm amplitude.
Participants were 18 to 80 years of age, inclusive, diagnosed of ET of at least 3 years duration with scores of at least 1.5 for each of the six items that comprised the combined total upper limb TETRAS (total performance subscale part 4) with the total score for the dominant upper limb (the sum of the 3 items for either the right or left upper limb, whichever is dominant) being at least 5.5, at both Screening and predose on Day 1.
Participants were randomized to receive Compound 1 60 mg or placebo once daily in the morning on a 1:1 basis. If participants reported a TEAE considered by investigator to be related to Compound 1 and not tolerable, investigator might reduce the dose of Compound 1 from 60 mg in 15 mg decrements (i.e., 60 mg, to 45 mg, to 30 mg), as medically appropriate. If intolerable TEAEs persist at the 30 mg dose, Compound 1 was permanently stopped.
This study included a Screening Period of up to 28 days, a 29-day treatment period consisting of 28 days of dosing with the end of treatment visit intended to be on Day 29 at trough, and a 14-day follow-up period relative to final dose. Study patients were not taking other medications for essential tremor during the 28-day treatment period.
Similarly, an MMRM was be used for the analysis of the following variables: changes from baseline in TETRAS performance subscale part 4, 6, 7, and 8 combined score, and TETRAS ADL score. For each model, the comparison of interest was between Compound 1 tablets and matching placebo at the 15-day time point. […]

As for `COC[C@@]1(O)CC[C@H]2[C@@H](CC[C@@H]3[C@@H]2CC[C@]2(C)[C@@H](C(=O)Cn4nnc(C)n4)CC[C@@H]32)C1` [Compound 1], the “LSMean difference vs placebo in change from baseline in TETRAS performance subscale part 4/6/7/8 total score” value is, setting by setting: (Day 8) −1.22; (Day 15, 5 hr postdose) −1.03; (Day 15, 8 hr postdose) −0.23; (Day 15, predose) −0.55; (Day 22) −0.77; (Day 29) −0.59 (−2.45, 1.28). The “LSMean difference vs placebo in change from baseline in TETRAS performance subscale part 4/6/7/8 total score” value is given as −0.59 (Day 29, listed as Cmpd 1) and 1.96 (Day 42). Further, the “Model-based LSMean (SE) change from baseline in TETRAS performance subscale part 4/6/7/8 total score” value is −2.84 (0.579) (Day 8); −4.59 (0.840) (Day 15, 5 hr postdose); −3.75 (0.755) (Day 15, 8 hr postdose); −2.63 (0.671) (Day 15, predose); −2.93 (0.691) (Day 22); −2.81 (0.699) (Day 29). The “Model-based LSMean (SE) change from baseline in TETRAS performance subscale part 4/6/7/8 total score” value (Day 42) was −1.17 (0.673).

Values taken from patent US20240238314A1, “TREATMENT OF ESSENTIAL TREMOR” (Sage Therapeutics, Inc., priority 2021, published 2024).
